Assay results published in patent US8598168B2 (MethylGene Inc., priority 2006, dated 2013).

Assays:
HDAC-1 = HDAC-1 (Homo sapiens, UniProt Q13547); test: Inhibition of Histone Deacetylase Enzymatic (HDAC-1) Activity; type: biochemical; conditions: Table 21
Method: The following protocol was used to assay the compounds of the invention.
The mixture was pre-incubated for 5 minutes at room temperature. The reaction was started by bringing the temperature to 37° C. and adding 15 μl substrate. Total reaction volume was 50 μl.

[1] = test system: human colon cancer HCT116 cells; test: MTT Assay; type: cell-based; conditions: HCT-116, 72 hours, Table 21
Method: Compounds at various concentrations were added to human colon cancer HCT116 cells plated in 96-well plates. Cells were incubated for 72 hours at 37° C. in 5% CO2 incubator. MTT (3-[4,5-dimethylthiazol-2-yl]-2,5 diphenyl tetrazolium bromide, Sigma) was added at a final concentration of 0.5 mg/ml and incubated with the cells for 4 hours before an equal volume of solubilization buffer (50% N,N-dimethylformamide, 20% SDS, pH 4.7) was added onto cultured cells. After overnight incubation, solubilized dye was quantified by colorimetric reading at […] using a reference at 630 nM. OD values were converted to cell numbers according to a standard growth curve of the relevant cell line. The concentration which reduces cell numbers to 50% of those of DMSO-treated cells is determined as MTT IC50.

[2] = Log D (comparison with previously disclosed compounds); type: physicochemical; conditions: pH 7.4

Chain of HDAC-1 (Q13547 whole entry): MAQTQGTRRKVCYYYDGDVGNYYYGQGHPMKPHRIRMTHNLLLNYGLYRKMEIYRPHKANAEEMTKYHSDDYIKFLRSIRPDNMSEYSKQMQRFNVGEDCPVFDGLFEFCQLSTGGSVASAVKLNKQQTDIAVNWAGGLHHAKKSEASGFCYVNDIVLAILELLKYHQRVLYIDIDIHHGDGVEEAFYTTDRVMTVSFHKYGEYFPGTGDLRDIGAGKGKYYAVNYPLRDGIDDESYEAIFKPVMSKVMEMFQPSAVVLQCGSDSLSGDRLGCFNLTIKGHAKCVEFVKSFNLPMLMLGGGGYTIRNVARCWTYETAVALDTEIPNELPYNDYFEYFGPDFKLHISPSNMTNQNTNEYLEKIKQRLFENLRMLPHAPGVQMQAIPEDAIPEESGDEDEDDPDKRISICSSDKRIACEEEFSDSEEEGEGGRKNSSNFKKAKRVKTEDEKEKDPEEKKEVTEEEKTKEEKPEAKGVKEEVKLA

Row | Compound | IC50 (HDAC-1) [µM] | IC50 [1] [µM] | logD [2]
1 | Nc1ccc(-c2cccs2)cc1NC(=O)c1ccc(CN2CC[C@H](Nc3cccnc3)C2)cc1 [compound 249, (S)—N-(2-Amino-5-(thiophen-2-yl)phenyl)-4-((3-(pyridin-3-ylamino)pyrrolidin-1-yl)methyl)benzamide] | < 1 | < 1 | 3.27
2 | CCN(CC)CCSc1ccc(C(=O)Nc2cc(-c3cccs3)ccc2N)cc1 [compound 107, N-(2-amino-5-(thiophen-2-yl)phenyl)-4-(2-(diethyl-amino)-ethylthio)-benzamide] | < 1 |  | 2.58
3 | Nc1ccc(-c2cccs2)cc1NC(=O)N1CCN(Cc2ccc3c(c2)OCO3)CC1 [compound 316, N-(2-Amino-5-(thiophen-2-yl)phenyl)-4-(benzo[d][1,3]dioxol-5-ylmethyl)piperazine-1-carboxamide] | < 1 |  | 2.32
4 | CCN(CC)Cc1ccc(C(=O)Nc2cc(-c3cccs3)ccc2N)cc1 [compound 79, N-(2-amino-5-(thiophen-2-yl)phenyl)-4-((diethylamino)-methyl)benzamide] | < 1 | < 1 | 3.19
5 | Nc1ccc(-c2cccs2)cc1NC(=O)c1ccc(CN2CCCCC2)cc1 [compound 12, N-(2-amino-5-(thiophen-2-yl)phenyl)-4-(piperidin-1-ylmethyl)benzamide] | < 1 | 1 to 5 | 3.86
6 | CC(C)N1CCN(Cc2ccc(C(=O)Nc3cc(-c4cccs4)ccc3N)cc2)CC1 [compound 15, N-(2-amino-5-(thiophen-2-yl)phenyl)-4-((4-isopropylpiperazin-1-yl)methyl)benzamide] | < 1 | < 1 | 2.15
7 | Nc1ccc(-c2cccs2)cc1NC(=O)c1ccc(N2CCC(N3CCCC3)CC2)cc1 [compound 105, N-(2-amino-5-(thiophen-2-yl)phenyl)-4-(4-(pyrrolidin-1-yl)piperidin-1-yl)benzamide] | < 1 | < 1 | 1.6
8 | Nc1ccc(-c2cccs2)cc1NC(=O)c1ccc(CN2CCC[C@@H](O)C2)cc1 [compound 11, (R)-N-(2-amino-5-(thiophen-2-yl)phenyl)-4-((3-hydroxypiperidin-1-yl)methyl)benzamide] | < 1 | < 1 | 3.03
9 | CCN(C)Cc1ccc(C(=O)Nc2cc(-c3cccs3)ccc2N)cc1 [compound 14, N-(2-amino-5-(thiophen-2-yl)phenyl)-4-((ethyl(methyl)amino)methyl)benzamide] | < 1 | < 1 | 3.2
10 | COCCN(CCOC)Cc1ccc(C(=O)Nc2cc(-c3cccs3)ccc2N)cc1 [compound 10, N-(2-amino-5-(thiophen-2-yl)phenyl)-4-((bis(2-methoxyethyl)amino)methyl)benzamide] | < 1 | < 1 | 3.1
11 | CN(C)[C@H]1CCN(c2ccc(C(=O)Nc3cc(-c4cccs4)ccc3N)cc2)C1 [compound 101, (S)—N-(2-Amino-5-(thiophen-2-yl)phenyl)-4-(3-(dimethylamino)pyrrolidin-1-yl)benzamide] | < 1 | < 1 | 1.94
12 | CN(C)CCSc1ccc(C(=O)Nc2cc(-c3cccs3)ccc2N)cc1 [compound 106, N-(2-amino-5-(thiophen-2-yl)phenyl)-4-(2-(dimethyl-amino)ethylthio)-benzamide] | < 1 | 1 to 5 | 2.85
13 | Nc1ccc(-c2cccs2)cc1NC(=O)c1ccc(CN2CC[C@H](O)C2)cc1 [compound 82, (S)-N-(2-amino-5-(thiophen-2-yl)phenyl)-4-((3-hydroxy-pyrrolidin-1-yl)methyl)-benzamide] | < 1 | < 1 | 2.6
14 | Nc1ccc(-c2cccs2)cc1NC(=O)c1ccc(CN2CCC[C@H]2CN2CCCC2)cc1 [compound 86, (S)-N-(2-amino-5-(thiophen-2-yl)phenyl)-4-((2-(pyrrolidin-1-ylmethyl)-pyrrolidin-1-yl)methyl)-benzamide] | < 1 | < 1 | 0.86
15 | Nc1ccc(-c2cccs2)cc1NC(=O)c1ccc(CN2CCN(c3ccccn3)CC2)cc1 [compound 89, N-(2-amino-5-(thiophen-2-yl)phenyl)-4-((4-(pyridin-2-yl)piperazin-1-yl)methyl)-benzamide] | < 1 | < 1 | 3.38
16 | Nc1ccc(-c2cccs2)cc1NC(=O)c1ccc(CN2CC[C@@H](O)C2)cc1 [compound 83, (R)-N-(2-amino-5-(thiophen-2-yl)phenyl)-4-((3-hydroxy-pyrrolidin-1-yl)methyl)-benzamide] | < 1 | 1 to 5 | 2.6

Row | Compound | IC50 (HDAC-1) [µM] | IC50 [1] [µM] | logD [2]
17 | Nc1ccc(-c2cccs2)cc1NC(=O)c1ccc(N2CCN(C3CCCC3)CC2)cc1 [compound 103, N-(2-amino-5-(thiophen-2-yl)phenyl)-4-(4-cyclopentyl-piperazin-1-yl)-benzamide] | < 1 | < 1 | 2.68
18 | Nc1ccc(-c2cccs2)cc1NC(=O)c1ccc(CN2CCN(c3ccncc3)CC2)cc1 [compound 85, N-(2-amino-5-(thiophen-2-yl)phenyl)-4-((4-(pyridin-4-yl)piperazin-1-yl)methyl)-benzamide] | < 1 | < 1 | 3.32
19 | CN(C)[C@@H]1CCN(Cc2ccc(C(=O)Nc3cc(-c4cccs4)ccc3N)cc2)C1 [compound 9, (R)—N-(2-Amino-5-(thiophen-2-yl)phenyl)-4-((3-(dimethylamino)pyrrolidin-1-yl)methyl)benzamide] | < 1 | < 1 | 2.11
20 | Nc1ccc(-c2cccs2)cc1NC(=O)c1ccc(CN2CCN(Cc3ccccc3)CC2)cc1 [compound 91, N-(2-amino-5-(thiophen-2-yl)phenyl)-4-((4-benzylpiperazin-1-yl)methyl)-benzamide] | < 1 | < 1 | 4.01
21 | CN(C)[C@H]1CCN(Cc2ccc(C(=O)Nc3cc(-c4cccs4)ccc3N)cc2)C1 [compound 81, (S)-N-(2-amino-5-(thiophen-2-yl)phenyl)-4-((3-(dimethylamino)-pyrrolidin-1-yl)methyl)-benzamide] | < 1 | < 1 | 2.11
22 | COCCN1CCN(c2ccc(C(=O)Nc3cc(-c4cccs4)ccc3N)cc2)CC1 [compound 108, N-(2-amino-5-(thiophen-2-yl)phenyl)-4-(4-(2-methoxyethyl)-piperazin-1-yl)benzamide] | < 1 | < 1 | 1.78
23 | Nc1ccc(-c2cccs2)cc1NC(=O)c1ccc(N2CCC(N3CCOCC3)CC2)cc1 [compound 104, N-(2-amino-5-(thiophen-2-yl)phenyl)-4-(4-morpholino-piperidin-1-yl)benzamide] | < 1 | < 1 | 2.51
24 | COCCN1CCN(Cc2ccc(C(=O)Nc3cc(-c4cccs4)ccc3N)cc2)CC1 [compound 13, N-(2-amino-5-(thiophen-2-yl)phenyl)-4-((4-(2-methoxyethyl)piperazin-1-yl)methyl)benzamide] | < 1 | < 1 | 2.22
25 | Nc1ccc(-c2cccs2)cc1NC(=O)c1ccc(CN2CCC(N3CCOCC3)CC2)cc1 [compound 77, N-(2-amino-5-(thiophen-2-yl)phenyl)-4-((4-morpholino-piperidin-1-yl)-methyl)-benzamide] | < 1 | < 1 | 2.59
26 | Nc1ccc(-c2cccs2)cc1NC(=O)c1ccc(CN2CCCC2)cc1 [compound 90, N-(2-amino-5-(thiophen-2-yl)phenyl)-4-(pyrrolidin-1-ylmethyl)-benzamide] | < 1 | < 1 | 3.15
27 | Nc1ccc(-c2cccs2)cc1NC(=O)c1ccc(CN2CCN(CCn3ccnc3)CC2)cc1 [compound 80, 4-((4-(2-(1H-imidazol-1-yl)ethyl)-piperazin-1-yl)-methyl)-N-(2-amino-5-(thiophen-2-yl)phenyl)-benzamide] | < 1 | < 1 | 1.54
28 | CC(=O)N[C@@H]1CCN(Cc2ccc(C(=O)Nc3cc(-c4cccs4)ccc3N)cc2)C1 [compound 84, (R)-4-((3-acetamido-pyrrolidin-1-yl)methyl)-N-(2-amino-5-(thiophen-2-yl)phenyl)-benzamide] | < 1 | < 1 | 2.15
29 | CC(=O)N[C@H]1CCN(Cc2ccc(C(=O)Nc3cc(-c4cccs4)ccc3N)cc2)C1 [compound 87, (S)-4-((3-acetamido-pyrrolidin-1-yl)methyl)-N-(2-amino-5-(thiophen-2-yl)phenyl)-benzamide] | < 1 | < 1 | 2.15
30 | CN(C)CCN(C)C(=O)NCc1ccc(C(=O)Nc2cc(-c3cccs3)ccc2N)cc1 [compound 222, N-(2-amino-5-(thiophen-2-yl)phenyl)-4-((3-(2-(dimethylamino)ethyl)-3-methylureido)methyl)benzamide] | < 1 | < 1 | 1.05
31 | Nc1ccc(-c2ccccc2)cc1NC(=O)C1CCN(S(=O)(=O)c2ccc([N+](=O)[O-])cc2)CC1 [compound 320, N-(4-Aminobiphenyl-3-yl)-1-(4-nitrophenylsulfonyl)piperidine-4-carboxamide] | < 1 |  | 3.21
